This passage reports inhibition results from US20060094749A1, “Substituted pyridoxines as anti-platelet agents” (Medicure International Inc., priority 2004, published 2006).

What all share (format): cell-based
Assay [1] deals with platelets (platelet rich plasma). Kind of assay: Inhibition of platelet aggregation, collagen as agonist. To be noted: compound 500 μM, human PRP. Here is the method: (§1) Platelet rich plasma (PRP) was obtained by drawing whole blood from normal human donors (not on any medication) into sodium citrate tubes (3.2%), and centrifuging at 160 xg for about 10 minutes. Platelet poor plasma (PPP) was obtained by centrifuging the remainder of the sample after the platelets were removed at 800 xg for about 10 minutes. The PRP was adjusted to a count of 280×10^9/L using a mixture of PRP and PPP. The platelets (200 μL) were incubated with the test compounds (25 μL) adjusted to various concentrations (50, 100, 250, and 500 μM) for about 30 minutes at room temperature (approximate final platelet count in the incubation mixture of 250×10^9/L). The samples were incubated for about 3 minutes at about 37° C., and then transferred to the mixing wells of a Chrono-log 4 channel aggregometer (Chrono-log Corp., Havertown, Pa.). After baselines were established, the agonist (25 μL of 40 μM ADP (Sigma, St. Louis, Mo.) or 25 μL of 50 μg/mL and 10 μg/mL collagen (Helena Laboratories, Beaumont, Tex.) or 25 μL of 120 μM thrombin receptor activating peptide (TRAP) (Sigma)) was then added. Aggregation was monitored for 5 minutes at 37° C. with stirring (1000 rpm). The amplitude and slope of each tracing were calculated to determine the amount of aggregation. Control samples were performed using only solvent. The % reduction in aggregation was calculated for each sample compared to the proper solvent control.

For assay [2] the test system is unchanged. Kind of assay: Inhibition of platelet aggregation, ADP as agonist. To be noted: compound 500 μM, ADP 4 μM, human PRP, read-out: % Reduction in Aggregation, ADP (4 μM). On the procedure: as §1
Assay [3] shares this test system. Kind of assay: Inhibition of platelet aggregation, thrombin receptor activating peptide (TRAP) as agonist. To be noted: compound 500 μM, TRAP 12 μM, human PRP, read-out: % Reduction in Aggregation, TRAP (12 μM). On the procedure: as §1

As for `Cc1ncc(CCNC(=O)c2cccc(C(=N)N)c2)c(CO)c1O` [Compound 61, 3-Carbamimidoyl-N-[2-(5-hydroxy-4-hydroxymethyl-6-methyl-pyridin-3-yl)-ethyl]-benzamide], the inhibition at 500 µM was 0% in assay [1] (collagen 1 μg/mL, read-out: % Reduction in Aggregation, Collagen (1 μg/mL)); 10% in assay [1] (collagen 5 μg/mL, read-out: % Reduction in Aggregation, Collagen (5 μg/mL)); 2% in assay [2]; 0% in assay [3].
